# Results taken from patent US20240415914A1, “Water Dispersible Cannabinoid Compositions” (priority 2021, published 2024).
# Assay: Stability of cannabinoid and Vitamin E components of Beverage 1 (AB White) stored at 8° C. and 21-25° C., LCMSMS over 570 days
# Assay type: physicochemical
# Conditions: for Stability in AB White, 8° C. (content by LCMSMS): beverage stored at 8° C.; for Stability in AB White, 21-25° C. (content by LCMSMS): beverage stored at 21-25° C.
# Protocol: The LCMSMS was calibrated for 0-1000 ng/ml cannabinoids with the same resin material used in the preparation of the concentrates. At each time period, 100 ml of beverage was diluted with 10 ml of methanol and injected into the LCMSMS for analysis.
structure (smiles),measurement,setting,value
"C=C(C)[C@@H]1CCC(C)=C[C@H]1c1c(O)cc(CCCCC)c(C(=O)O)c1O [CBDA, cannabidiolic acid]","Stability in AB White, 8° C. (content by LCMSMS)",day 0,1.75 µg/mL
same,"Stability in AB White, 8° C. (content by LCMSMS)",day 1,1.72 µg/mL
same,"Stability in AB White, 8° C. (content by LCMSMS)",day 2,1.76 µg/mL
same,"Stability in AB White, 8° C. (content by LCMSMS)",day 3,1.76 µg/mL
same,"Stability in AB White, 8° C. (content by LCMSMS)",day 5,1.71 µg/mL
same,"Stability in AB White, 8° C. (content by LCMSMS)",day 8,1.75 µg/mL
same,"Stability in AB White, 8° C. (content by LCMSMS)",day 9,1.73 µg/mL
same,"Stability in AB White, 8° C. (content by LCMSMS)",day 10,1.76 µg/mL
same,"Stability in AB White, 8° C. (content by LCMSMS)",day 11,1.70 µg/mL
same,"Stability in AB White, 8° C. (content by LCMSMS)",day 12,1.71 µg/mL
same,"Stability in AB White, 8° C. (content by LCMSMS)",day 15,1.74 µg/mL
same,"Stability in AB White, 8° C. (content by LCMSMS)",day 16,1.73 µg/mL
same,"Stability in AB White, 8° C. (content by LCMSMS)",day 17,1.73 µg/mL
same,"Stability in AB White, 8° C. (content by LCMSMS)",day 18,1.76 µg/mL
same,"Stability in AB White, 8° C. (content by LCMSMS)",day 19,1.74 µg/mL
same,"Stability in AB White, 8° C. (content by LCMSMS)",day 22,1.70 µg/mL
same,"Stability in AB White, 8° C. (content by LCMSMS)",day 23,1.76 µg/mL
same,"Stability in AB White, 8° C. (content by LCMSMS)",day 24,1.72 µg/mL
same,"Stability in AB White, 8° C. (content by LCMSMS)",day 25,1.75 µg/mL
same,"Stability in AB White, 8° C. (content by LCMSMS)",day 26,1.75 µg/mL
same,"Stability in AB White, 8° C. (content by LCMSMS)",day 29,1.75 µg/mL
same,"Stability in AB White, 8° C. (content by LCMSMS)",day 30,1.76 µg/mL
same,"Stability in AB White, 8° C. (content by LCMSMS)",day 60,1.70 µg/mL
same,"Stability in AB White, 8° C. (content by LCMSMS)",day 90,1.70 µg/mL
same,"Stability in AB White, 8° C. (content by LCMSMS)",day 120,1.67 µg/mL
same,"Stability in AB White, 8° C. (content by LCMSMS)",day 150,1.71 µg/mL
same,"Stability in AB White, 8° C. (content by LCMSMS)",day 180,1.75 µg/mL
same,"Stability in AB White, 8° C. (content by LCMSMS)",day 210,1.68 µg/mL
same,"Stability in AB White, 8° C. (content by LCMSMS)",day 240,1.70 µg/mL
same,"Stability in AB White, 8° C. (content by LCMSMS)",day 270,1.70 µg/mL
same,"Stability in AB White, 8° C. (content by LCMSMS)",day 300,1.69 µg/mL
same,"Stability in AB White, 8° C. (content by LCMSMS)",day 330,1.70 µg/mL
same,"Stability in AB White, 8° C. (content by LCMSMS)",day 360,1.70 µg/mL
same,"Stability in AB White, 8° C. (content by LCMSMS)",day 390,1.70 µg/mL
same,"Stability in AB White, 8° C. (content by LCMSMS)",day 420,1.67 µg/mL
same,"Stability in AB White, 8° C. (content by LCMSMS)",day 450,1.68 µg/mL
same,"Stability in AB White, 8° C. (content by LCMSMS)",day 480,1.66 µg/mL
same,"Stability in AB White, 8° C. (content by LCMSMS)",day 510,1.61 µg/mL
same,"Stability in AB White, 8° C. (content by LCMSMS)",day 540,1.61 µg/mL
same,"Stability in AB White, 8° C. (content by LCMSMS)",day 570,1.60 µg/mL
same,"Stability in AB White, 21-25° C. (content by LCMSMS)",day 0,1.75 µg/mL
same,"Stability in AB White, 21-25° C. (content by LCMSMS)",day 1,1.76 µg/mL
same,"Stability in AB White, 21-25° C. (content by LCMSMS)",day 2,1.70 µg/mL
same,"Stability in AB White, 21-25° C. (content by LCMSMS)",day 3,1.71 µg/mL
same,"Stability in AB White, 21-25° C. (content by LCMSMS)",day 5,1.69 µg/mL
same,"Stability in AB White, 21-25° C. (content by LCMSMS)",day 8,1.77 µg/mL
same,"Stability in AB White, 21-25° C. (content by LCMSMS)",day 9,1.74 µg/mL
same,"Stability in AB White, 21-25° C. (content by LCMSMS)",day 10,1.73 µg/mL
same,"Stability in AB White, 21-25° C. (content by LCMSMS)",day 11,1.76 µg/mL
same,"Stability in AB White, 21-25° C. (content by LCMSMS)",day 12,1.74 µg/mL
same,"Stability in AB White, 21-25° C. (content by LCMSMS)",day 15,1.69 µg/mL
same,"Stability in AB White, 21-25° C. (content by LCMSMS)",day 16,1.75 µg/mL
same,"Stability in AB White, 21-25° C. (content by LCMSMS)",day 17,1.72 µg/mL
same,"Stability in AB White, 21-25° C. (content by LCMSMS)",day 18,1.75 µg/mL
same,"Stability in AB White, 21-25° C. (content by LCMSMS)",day 19,1.70 µg/mL
same,"Stability in AB White, 21-25° C. (content by LCMSMS)",day 22,1.70 µg/mL
same,"Stability in AB White, 21-25° C. (content by LCMSMS)",day 23,1.73 µg/mL
same,"Stability in AB White, 21-25° C. (content by LCMSMS)",day 24,1.70 µg/mL
same,"Stability in AB White, 21-25° C. (content by LCMSMS)",day 25,1.73 µg/mL
same,"Stability in AB White, 21-25° C. (content by LCMSMS)",day 26,1.75 µg/mL
same,"Stability in AB White, 21-25° C. (content by LCMSMS)",day 29,1.76 µg/mL
same,"Stability in AB White, 21-25° C. (content by LCMSMS)",day 30,1.71 µg/mL
same,"Stability in AB White, 21-25° C. (content by LCMSMS)",day 60,1.68 µg/mL
same,"Stability in AB White, 21-25° C. (content by LCMSMS)",day 90,1.67 µg/mL
same,"Stability in AB White, 21-25° C. (content by LCMSMS)",day 120,1.66 µg/mL
same,"Stability in AB White, 21-25° C. (content by LCMSMS)",day 150,1.64 µg/mL
same,"Stability in AB White, 21-25° C. (content by LCMSMS)",day 180,1.69 µg/mL
same,"Stability in AB White, 21-25° C. (content by LCMSMS)",day 210,1.73 µg/mL
same,"Stability in AB White, 21-25° C. (content by LCMSMS)",day 240,1.73 µg/mL
same,"Stability in AB White, 21-25° C. (content by LCMSMS)",day 270,1.71 µg/mL
same,"Stability in AB White, 21-25° C. (content by LCMSMS)",day 300,1.73 µg/mL
same,"Stability in AB White, 21-25° C. (content by LCMSMS)",day 330,1.72 µg/mL
same,"Stability in AB White, 21-25° C. (content by LCMSMS)",day 360,1.69 µg/mL
same,"Stability in AB White, 21-25° C. (content by LCMSMS)",day 390,1.67 µg/mL
same,"Stability in AB White, 21-25° C. (content by LCMSMS)",day 420,1.64 µg/mL
same,"Stability in AB White, 21-25° C. (content by LCMSMS)",day 450,1.70 µg/mL
same,"Stability in AB White, 21-25° C. (content by LCMSMS)",day 480,1.63 µg/mL
same,"Stability in AB White, 21-25° C. (content by LCMSMS)",day 510,1.66 µg/mL
same,"Stability in AB White, 21-25° C. (content by LCMSMS)",day 540,1.63 µg/mL
same,"Stability in AB White, 21-25° C. (content by LCMSMS)",day 570,1.61 µg/mL
